Experimental data from patent publication US4335138A, “Novel carbamates, their preparation, and pharmaceutical formulations containing these compounds” (BASF Aktiengesellschaft, priority 1979, dated 1982).

Assays:
[1] = system: rats; experiment: Hypnotic action on intraperitoneal administration (period of absence of the righting reflex, duration of sleep); type: in vivo, female Sprague-Dawley rats; settings: for ED (60 min sleep): Rattus norvegicus, 1 h, dose which causes a 60 minute period of sleep, regression analysis
Protocol: To investigate the hypnotic action, these substances are administered intraperitoneally to groups of 4-8 female Sprague-Dawley rats each weighing 145-200 g. The period of absence of the righting reflex (ie. the duration of sleep) served as a criterion of the hypnotic action.
Linear relationships exist between the logarithms of the administered doses (mg/kg) and the logarithms of the period of sleep (min), from which relationships the dose which causes a 60 minute period of sleep is calculated, as the ED 60 min, by regression analysis.

[2] = in vivo; settings: rat, ip; for selectivity ratio: Therapeutic range
Protocol: (§1) The acute toxicity is determined on groups of 10 rats of the same strain as above, again for intraperitoneal administration.
(§2) The comparison substance used is the well known hypnotic Ethinamate (1-ethynyl-cyclohexyl carbamate).

[3] = German Laid-Open Application DOS No. 2,346,305; cited from earlier work
[4] = system: rats; experiment: in vivo; settings: rat, ip, 681 mg/kg
Protocol: as §1, §2

SMILES	ED (60 min sleep) ([1]; ip, intraperitoneal, rats)	R.A. (relative activity) ([1]; rat, in vivo, ip)	LD50 at 6 h [2]	selectivity ratio [2]	Analgesic properties (in words), prior art [3]	R.A. (relative activity) ([1]; Ethinamate = 1.00, intraperitoneal, rats)	Mortality rate [4]
CCCNC(=O)OC[C@@]1(C(C)=O)C[C@@H]2C=C[C@H]1C2 (relative stereo) [Example 4, exo-2-(N-n-propylcarbamyloxymethyl)-norborn-5-en-2-yl methyl ketone]	21.5 mg/kg	3.22	392 mg/kg	18.2			
CC(=O)[C@]1(COC(=O)NC(C)C)C[C@@H]2C=C[C@H]1C2 (relative stereo) [Example 7, exo-2-(N-isopropylcarbamyloxymethyl)-norborn-5-en-2-yl methyl ketone]	20.7 mg/kg	3.35	137 mg/kg	6.6			
CC(=O)[C@]1(COC(=O)NC2CCCC2)C[C@@H]2C=C[C@H]1C2 (relative stereo) [Example 15, exo-2-(N-cyclopentylcarbamyloxymethyl)-norborn-5-en-2-yl methyl ketone]	46.4 mg/kg	1.49	247 mg/kg	5.3			
CC(=O)[C@]1(COC(=O)NC(C)C)C[C@@H]2CC[C@H]1C2 (relative stereo) [Example 36, exo-2-(N-isopropylcarbamyloxymethyl)-norborn-2-yl methyl ketone]	37.6 mg/kg	1.84	464 mg/kg	12.3			
CC(=O)[C@]1(COC(=O)NCC(C)C)C[C@@H]2C=C[C@H]1C2 (relative stereo) [Example 87, exo-2-(N-(2-methylpropyl)-carbamyloxymethyl)-norborn-5-en-2-yl methyl ketone]	46.7 mg/kg	1.48	482 mg/kg	10.3			
CC(=O)[C@]1(COC(=O)NC2CC2)C[C@@H]2C=C[C@H]1C2 (relative stereo) [Example 109, exo-2-(N-cyclopropylcarbamyloxymethyl)-norborn-5-en-2-yl methyl ketone]	27.2 mg/kg	2.55	187 mg/kg	6.9			
CNC(=O)OC1OC(=O)C2C3C=CC(C3)C12 (stereo not shown) [4-oxa-5-(5-methylcarbamyloxy)-tricyclo[5,2,1,0^2,6]-dec-8-en-3-one]					exhibit analgesic properties		
C#CC1(OC(N)=O)CCCCC1 [Ethinamate, 1-ethynyl-cyclohexyl carbamate, reference compound]	69.3 mg/kg					1.00	
CCCNC(=O)OCC1(C(C)=O)CC=CCC1 (stereo not shown) [Example 52, 1-(N-propylcarbamyloxymethyl)-cyclohex-3-enyl methyl ketone]	28.5 mg/kg	2.43	215 mg/kg	7.5			
CCC(C)NC(=O)OC[C@@]1(C(C)=O)C[C@@H]2C=C[C@H]1C2 (stereo partly drawn) [Example 88, exo-2-(N-but-2-yl-carbamyloxymethyl)-norborn-5-en-2-yl methyl ketone]	30.8 mg/kg	2.25	150 mg/kg	4.9			
CC(=O)[C@]1(COC(=O)NC(C)C2CC2)C[C@@H]2C=C[C@H]1C2 (stereo partly drawn) [Example 98, exo-2-[N-(1-cyclopropylethyl)-carbamyloxymethyl]-norborn-5-en-2-yl methyl ketone]	30.3 mg/kg	2.29	≥ 681 mg/kg	≥ 22.5			0/10
